According to the NIST ThermoML archive (doi:10.1021/acs.jced.5b00549):

Test: mn = molality of the nth substance listed, in mol/kg
Conditions: 100 kPa, Liquid; for viscosity: Capillary tube (Ostwald / Ubbelohde) method; for speed of sound: Frequency=3 MHz, Sing-around technique in a fixed-path interferometer; for mass density: Vibrating tube method

NC(=O)CC[C@H](N)C(=O)O [L-glutamine] + O
Conditions	mass density, 293.15 K [kg/m3]	mass density, 298.15 K [kg/m3]	speed of sound, 293.15 K [m/s]	speed of sound, 298.15 K [m/s]	speed of sound, 303.15 K [m/s]	viscosity, 293.15 K [mPa·s]	viscosity, 298.15 K [mPa·s]	viscosity, 303.15 K [mPa·s]
m1 = 0.02	999.262	998.094	1484	1498	1510.3	1.012	0.8984	0.8039
m1 = 0.04	1000.32	999.147	1485.3	1499.3	1511.6	1.017	0.9028	0.8076
m1 = 0.06	1001.38	1000.2	1486.9	1500.8	1513	1.022	0.9067	0.8109
m1 = 0.08	1002.44	1001.26	1488.4	1502.3	1514.5	1.027	0.9104	0.8141
m1 = 0.1	1003.5	1002.32	1490.1	1503.9	1516	1.031	0.9143	0.817
m1 = 0.12	1004.57	1003.37	1491.8	1505.6	–	1.035	0.9175	0.82
m1 = 0.14	1005.63	1004.43	1493.5	1507.3	–	1.039	0.9212	0.8224
m1 = 0.16	1006.69	1005.49	1495.3	1509	–	1.043	0.9246	0.8254
m1 = 0.18	1007.76	1006.56	1497.2	1510.7	–	1.047	0.9277	0.8283
m1 = 0.2	1008.82	1007.62	1499	1512.6	–	1.051	0.9308	0.8316
